Calls of active or inactive are those of the source. The rule behind the calls is not given here.
What was measured:
[1] = molecular target: Sodium-dependent noradrenaline transporter (Homo sapiens) (UniProt P23975); conditions: 10 uM
[2] = molecular target: 5-hydroxytryptamine receptor 2A (Homo sapiens) (UniProt P28223); conditions: 10 uM
[3] = molecular target: Mu-type opioid receptor (Homo sapiens) (UniProt P35372); conditions: 10 uM
[4] = molecular target: Muscarinic acetylcholine receptor M2 (Homo sapiens) (UniProt P08172); conditions: 10 uM
[5] = molecular target: Estrogen receptor (Homo sapiens) (UniProt P03372); conditions: 10 uM
[6] = molecular target: D(2) dopamine receptor (Homo sapiens) (UniProt P14416); conditions: 10 uM
[7] = molecular target: Beta-1 adrenergic receptor (Homo sapiens) (UniProt P08588); conditions: 10 uM
[8] = molecular target: Alpha-2A adrenergic receptor (Homo sapiens) (UniProt P08913); conditions: 10 uM
[9] = molecular target: Insulin receptor (Homo sapiens) (UniProt P06213); conditions: 10 uM
[10] = molecular target: Alpha-1D adrenergic receptor (Homo sapiens) (UniProt P25100); conditions: 10 uM
[11] = molecular target: Nitric oxide synthase 3 (Homo sapiens) (UniProt P29474); conditions: 10 uM
[12] = molecular target: Prostaglandin G/H synthase 1 (Homo sapiens) (UniProt P23219); conditions: 10 uM
[13] = molecular target: Acetylcholinesterase (Homo sapiens) (UniProt P22303); conditions: 10 uM
[14] = molecular target: Glycine receptor subunit alpha-1 (Homo sapiens) (UniProt P23415); conditions: 33 uM
[15] = molecular target: Histamine H1 receptor (Homo sapiens) (UniProt P35367); conditions: 10 uM
[16] = molecular target: Voltage-dependent T-type calcium channel subunit alpha-1H (Homo sapiens) (UniProt O95180); conditions: 31.6 uM
[17] = molecular target: Transient receptor potential cation channel subfamily A member 1 (Homo sapiens) (UniProt O75762); conditions: 11 uM
[18] = species on record: Rattus norvegicus; conditions: Brain, Brain membranes, 10 uM
[19] = cells; conditions: Homo sapiens, HEK293
[20] = in vivo; conditions: Sprague-Dawley, rat, brain/plasma
[21] = in vivo; conditions: Sprague-Dawley, rat, po, 10 umol/kg
[22] = in vivo; conditions: Sprague-Dawley, rat, po, 10 umol/kg; remark: listed apart in the source
[23] = in vivo; conditions: Sprague-Dawley, rat, po, 10 umol/kg; remark: listed apart in the source
[24] = in vivo; conditions: Sprague-Dawley, rat, po, 10 umol/kg; remark: listed apart in the source
[25] = in vivo; conditions: Sprague-Dawley, rat, po, 10 umol/kg; remark: listed apart in the source
[26] = in vivo; conditions: Sprague-Dawley, rat, iv, 3 umol/kg
[27] = in vitro; conditions: Sprague-Dawley, rat, plasma
[28] = species on record: Rattus norvegicus; experiment: animal or person; conditions: Sprague-Dawley, po, read-out: INH
[29] = species on record: Rattus norvegicus; experiment: animal or person; conditions: Sprague-Dawley, po, read-out: INH; remark: listed apart in the source
[30] = species on record: Rattus norvegicus; experiment: animal or person; conditions: Sprague-Dawley, po, read-out: INH; remark: listed apart in the source
[31] = species on record: Rattus norvegicus; experiment: animal or person; conditions: Sprague-Dawley, po, read-out: INH; remark: listed apart in the source
[32] = species on record: Rattus norvegicus; experiment: animal or person; conditions: Sprague-Dawley, po, read-out: INH; remark: listed apart in the source
[33] = species on record: Rattus norvegicus; experiment: animal or person; conditions: Sprague-Dawley, po, read-out: INH; remark: listed apart in the source
[34] = species on record: Rattus norvegicus; experiment: animal or person; conditions: Sprague-Dawley, po, read-out: INH; remark: listed apart in the source
[35] = species on record: Rattus norvegicus; experiment: animal or person; conditions: Sprague-Dawley, po, read-out: INH; remark: listed apart in the source
[36] = molecular target: Potassium voltage-gated channel subfamily KQT member 2 (Homo sapiens) (UniProt O43526); conditions: 10 uM
[37] = molecular target: Potassium voltage-gated channel subfamily A member 5 (Homo sapiens) (UniProt P22460); conditions: 10 uM
[38] = in vivo; conditions: Sprague-Dawley, rat, iv, 3 umol/kg; remark: listed apart in the source
[39] = in vivo; conditions: Sprague-Dawley, rat, iv, 3 umol/kg; remark: listed apart in the source
[40] = in vivo; conditions: Sprague-Dawley, rat, iv, 3 umol/kg; remark: listed apart in the source
[41] = in vitro; conditions: human, microsomes, CLH
[42] = in vitro; conditions: rat, microsomes, CLH

Chain of Prostaglandin G/H synthase 1 (Homo sapiens) (P23219 whole entry): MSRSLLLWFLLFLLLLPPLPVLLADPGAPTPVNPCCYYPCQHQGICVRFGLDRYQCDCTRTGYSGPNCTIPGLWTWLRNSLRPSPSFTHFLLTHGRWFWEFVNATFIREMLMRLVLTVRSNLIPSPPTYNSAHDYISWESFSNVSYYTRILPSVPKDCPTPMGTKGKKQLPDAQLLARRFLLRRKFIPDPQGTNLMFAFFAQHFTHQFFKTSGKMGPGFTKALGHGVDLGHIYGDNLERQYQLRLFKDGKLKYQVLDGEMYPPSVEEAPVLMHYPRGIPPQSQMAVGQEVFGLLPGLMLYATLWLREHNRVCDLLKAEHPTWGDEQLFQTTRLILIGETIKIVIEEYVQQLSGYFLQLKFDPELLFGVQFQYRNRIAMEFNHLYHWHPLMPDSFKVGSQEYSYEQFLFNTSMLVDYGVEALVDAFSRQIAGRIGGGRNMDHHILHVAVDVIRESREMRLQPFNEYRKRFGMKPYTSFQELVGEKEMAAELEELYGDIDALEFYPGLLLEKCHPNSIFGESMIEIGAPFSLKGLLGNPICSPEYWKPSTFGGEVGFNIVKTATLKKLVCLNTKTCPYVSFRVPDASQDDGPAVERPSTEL
Chain of Beta-1 adrenergic receptor (Homo sapiens) (P08588 whole entry, looked up): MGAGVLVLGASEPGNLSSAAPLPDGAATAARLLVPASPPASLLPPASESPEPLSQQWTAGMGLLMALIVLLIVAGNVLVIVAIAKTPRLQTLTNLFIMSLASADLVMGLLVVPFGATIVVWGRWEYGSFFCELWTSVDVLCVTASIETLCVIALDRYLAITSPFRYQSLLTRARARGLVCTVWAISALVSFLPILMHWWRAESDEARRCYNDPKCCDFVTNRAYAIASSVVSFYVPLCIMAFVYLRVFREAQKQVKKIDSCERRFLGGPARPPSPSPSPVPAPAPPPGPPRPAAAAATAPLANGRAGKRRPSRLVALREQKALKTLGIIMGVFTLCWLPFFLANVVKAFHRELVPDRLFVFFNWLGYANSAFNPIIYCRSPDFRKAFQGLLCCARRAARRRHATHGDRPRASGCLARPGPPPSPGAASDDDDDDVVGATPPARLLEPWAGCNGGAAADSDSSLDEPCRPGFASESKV
Chain of Insulin receptor (Homo sapiens) (P06213 28-758 limits assumed): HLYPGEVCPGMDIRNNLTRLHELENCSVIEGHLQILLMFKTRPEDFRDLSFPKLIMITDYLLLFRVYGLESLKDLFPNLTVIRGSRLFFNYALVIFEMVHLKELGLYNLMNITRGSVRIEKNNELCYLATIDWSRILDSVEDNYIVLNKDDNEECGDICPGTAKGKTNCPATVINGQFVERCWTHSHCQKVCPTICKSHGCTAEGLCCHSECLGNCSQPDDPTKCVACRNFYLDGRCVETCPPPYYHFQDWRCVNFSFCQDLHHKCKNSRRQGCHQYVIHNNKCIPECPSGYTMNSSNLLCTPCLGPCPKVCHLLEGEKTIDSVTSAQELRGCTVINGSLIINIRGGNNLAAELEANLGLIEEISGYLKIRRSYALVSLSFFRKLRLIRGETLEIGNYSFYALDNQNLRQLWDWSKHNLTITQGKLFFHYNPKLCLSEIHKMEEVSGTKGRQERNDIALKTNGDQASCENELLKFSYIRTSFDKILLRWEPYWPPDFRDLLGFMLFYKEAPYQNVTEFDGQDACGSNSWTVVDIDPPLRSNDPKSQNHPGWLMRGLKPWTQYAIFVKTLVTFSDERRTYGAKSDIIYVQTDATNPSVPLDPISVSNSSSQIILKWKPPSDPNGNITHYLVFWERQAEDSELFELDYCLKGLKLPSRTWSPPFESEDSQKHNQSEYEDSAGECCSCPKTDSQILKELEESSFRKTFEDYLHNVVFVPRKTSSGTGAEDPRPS
Chain of Insulin receptor (Homo sapiens) (P06213 763-1382 limits assumed): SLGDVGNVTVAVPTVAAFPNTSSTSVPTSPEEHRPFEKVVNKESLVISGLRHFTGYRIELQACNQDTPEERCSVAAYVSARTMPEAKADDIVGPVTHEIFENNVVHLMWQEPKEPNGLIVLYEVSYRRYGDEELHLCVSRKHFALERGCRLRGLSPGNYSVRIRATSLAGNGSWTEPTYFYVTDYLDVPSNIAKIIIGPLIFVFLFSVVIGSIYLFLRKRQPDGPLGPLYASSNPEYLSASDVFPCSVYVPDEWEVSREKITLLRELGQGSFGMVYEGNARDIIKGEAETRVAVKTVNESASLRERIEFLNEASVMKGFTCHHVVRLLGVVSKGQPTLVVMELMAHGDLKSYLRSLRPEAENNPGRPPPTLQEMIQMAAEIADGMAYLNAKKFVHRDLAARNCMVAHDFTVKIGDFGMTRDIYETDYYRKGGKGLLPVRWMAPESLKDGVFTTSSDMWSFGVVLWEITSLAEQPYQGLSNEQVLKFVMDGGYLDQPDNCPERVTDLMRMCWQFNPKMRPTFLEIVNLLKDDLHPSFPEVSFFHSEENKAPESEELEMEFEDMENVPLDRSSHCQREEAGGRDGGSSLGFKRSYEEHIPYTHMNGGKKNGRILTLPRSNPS
Chain of Acetylcholinesterase (Homo sapiens) (P22303 whole entry): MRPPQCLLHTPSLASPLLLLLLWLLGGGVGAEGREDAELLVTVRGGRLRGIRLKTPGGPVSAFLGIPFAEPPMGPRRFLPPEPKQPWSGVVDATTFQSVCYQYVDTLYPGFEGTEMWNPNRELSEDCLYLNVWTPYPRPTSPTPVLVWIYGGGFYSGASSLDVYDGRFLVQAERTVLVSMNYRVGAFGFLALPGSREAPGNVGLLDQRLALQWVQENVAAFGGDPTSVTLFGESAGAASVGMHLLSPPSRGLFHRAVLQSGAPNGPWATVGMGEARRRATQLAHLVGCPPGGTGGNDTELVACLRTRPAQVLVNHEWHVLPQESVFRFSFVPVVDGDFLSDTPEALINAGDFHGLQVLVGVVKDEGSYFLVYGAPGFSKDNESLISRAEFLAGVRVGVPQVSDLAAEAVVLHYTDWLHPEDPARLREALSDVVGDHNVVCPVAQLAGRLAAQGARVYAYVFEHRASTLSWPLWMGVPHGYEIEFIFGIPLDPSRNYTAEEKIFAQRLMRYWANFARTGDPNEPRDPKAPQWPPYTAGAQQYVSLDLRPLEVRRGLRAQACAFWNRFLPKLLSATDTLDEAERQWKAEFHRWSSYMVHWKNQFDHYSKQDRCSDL
Chain of D(2) dopamine receptor (Homo sapiens) (P14416 whole entry): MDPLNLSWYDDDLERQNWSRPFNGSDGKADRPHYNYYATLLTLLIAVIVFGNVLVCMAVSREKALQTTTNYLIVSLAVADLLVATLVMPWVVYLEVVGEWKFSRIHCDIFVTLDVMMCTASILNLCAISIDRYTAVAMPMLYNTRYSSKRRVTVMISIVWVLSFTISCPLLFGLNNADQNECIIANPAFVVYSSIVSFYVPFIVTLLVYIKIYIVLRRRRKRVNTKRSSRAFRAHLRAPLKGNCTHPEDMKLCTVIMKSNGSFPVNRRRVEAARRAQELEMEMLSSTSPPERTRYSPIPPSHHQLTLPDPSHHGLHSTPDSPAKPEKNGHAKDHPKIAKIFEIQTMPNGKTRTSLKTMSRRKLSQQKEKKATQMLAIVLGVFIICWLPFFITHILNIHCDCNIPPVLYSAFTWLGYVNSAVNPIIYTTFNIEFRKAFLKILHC
Chain of Glycine receptor subunit alpha-1 (Homo sapiens) (P23415 whole entry): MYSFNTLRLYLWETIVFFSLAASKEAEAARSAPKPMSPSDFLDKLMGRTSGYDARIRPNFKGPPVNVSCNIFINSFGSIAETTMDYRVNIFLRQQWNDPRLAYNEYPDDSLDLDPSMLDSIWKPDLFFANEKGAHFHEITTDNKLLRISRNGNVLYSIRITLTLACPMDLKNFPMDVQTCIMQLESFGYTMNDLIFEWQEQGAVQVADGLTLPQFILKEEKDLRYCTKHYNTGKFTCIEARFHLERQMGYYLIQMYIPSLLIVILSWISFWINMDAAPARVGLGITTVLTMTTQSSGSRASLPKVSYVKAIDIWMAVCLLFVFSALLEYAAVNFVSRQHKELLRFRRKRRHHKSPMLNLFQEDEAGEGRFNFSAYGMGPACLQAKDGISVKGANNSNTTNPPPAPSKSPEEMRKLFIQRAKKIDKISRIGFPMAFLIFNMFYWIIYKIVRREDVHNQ
Chain of Estrogen receptor (Homo sapiens) (P03372 whole entry): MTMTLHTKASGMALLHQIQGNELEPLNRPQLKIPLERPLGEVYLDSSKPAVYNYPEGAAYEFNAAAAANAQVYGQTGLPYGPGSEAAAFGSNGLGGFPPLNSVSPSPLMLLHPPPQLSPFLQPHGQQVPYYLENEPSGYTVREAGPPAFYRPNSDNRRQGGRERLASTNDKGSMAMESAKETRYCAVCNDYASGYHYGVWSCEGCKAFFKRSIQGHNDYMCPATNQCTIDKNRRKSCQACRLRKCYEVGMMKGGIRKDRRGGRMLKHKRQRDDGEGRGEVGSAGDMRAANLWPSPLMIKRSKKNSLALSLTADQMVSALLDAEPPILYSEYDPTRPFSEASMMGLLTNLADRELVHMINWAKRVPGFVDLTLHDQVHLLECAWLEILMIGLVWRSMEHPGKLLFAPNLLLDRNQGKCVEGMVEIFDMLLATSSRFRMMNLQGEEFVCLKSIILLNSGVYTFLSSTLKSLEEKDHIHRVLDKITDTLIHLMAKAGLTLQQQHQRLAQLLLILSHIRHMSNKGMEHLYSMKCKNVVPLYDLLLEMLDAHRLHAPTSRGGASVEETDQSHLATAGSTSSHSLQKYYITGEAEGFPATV
Chain of Muscarinic acetylcholine receptor M2 (Homo sapiens) (P08172 whole entry): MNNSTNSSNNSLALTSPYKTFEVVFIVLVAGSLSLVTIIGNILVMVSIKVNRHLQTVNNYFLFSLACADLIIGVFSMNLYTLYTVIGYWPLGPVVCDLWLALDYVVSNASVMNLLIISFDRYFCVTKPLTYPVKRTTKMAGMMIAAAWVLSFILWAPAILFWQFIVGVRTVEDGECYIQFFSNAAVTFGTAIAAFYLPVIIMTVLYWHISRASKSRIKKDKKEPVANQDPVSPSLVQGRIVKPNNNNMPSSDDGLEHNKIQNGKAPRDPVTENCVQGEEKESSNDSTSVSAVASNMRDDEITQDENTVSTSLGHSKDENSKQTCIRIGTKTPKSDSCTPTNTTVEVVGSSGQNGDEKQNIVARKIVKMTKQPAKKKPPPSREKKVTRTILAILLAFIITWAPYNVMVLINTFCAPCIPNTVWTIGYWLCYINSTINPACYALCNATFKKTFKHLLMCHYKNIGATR

Row | Compound | inhibition [1] | inhibition [2] | inhibition [3] | inhibition [4] | inhibition [5] | inhibition [6] | inhibition [7] | inhibition [8] | inhibition [9] | inhibition [10] | inhibition [11] | inhibition [12] | inhibition [13] | inhibition [14] | inhibition [15] | inhibition [16] | inhibition [17] | inhibition [18] [%] | IC50 [19] [µM] | Kp [20] | further results
1 | O=C(NCc1ccc(OC(F)(F)F)cc1)C1c2ccccc2C(=O)N1CCc1ccccn1 (stereo in doubt; 16A) | inactive | inactive | inactive | inactive | inactive | inactive | inactive | inactive | inactive | inactive | inactive | inactive | inactive | inactive | inactive | 44% | inactive | 100 | 10 | 2 | bioavailability [21]: 37%; half-life [22]: 5.9 h; Tmax [23]: 0.5 h; Cmax [24]: 600 nM; AUC [25]: 2.1 µM·h; AUC [26]: 1.7 µM·h; fraction unbound [27]: 0.045; inhibition in vivo at 100 µmol/kg [28]: 42%; inhibition in vivo at 30 µmol/kg [29]: 26%; inhibition in vivo at 140 µmol/kg [30]: 53%; inhibition in vivo at 140 µmol/kg [31]: 84%; inhibition in vivo at 100 µmol/kg [32]: 44%; inhibition in vivo at 100 µmol/kg [33]: 56%; inhibition in vivo at 30 µmol/kg [34]: 35%; inhibition in vivo at 30 µmol/kg [35]: 25%
2 | O=C(NCc1ccc(OC(F)(F)F)cc1)C1c2ccccc2C(=O)N1C1CCOCC1 (single isomer, unassigned; enantiomer 2) | inactive | inactive | inactive | inactive | inactive | inactive | inactive | inactive | inactive | inactive | inactive | inactive | inactive | inactive | inactive | inactive | inactive | 79 | > 33 | 1 | inhibition [36]: inactive; inhibition [37]: inactive; bioavailability [21]: 20%; half-life [22]: 1.9 h; Tmax [23]: 0.3 h; Cmax [24]: 600 nM; AUC [25]: 1.1 µM·h; clearance [38]: 30 mL/min/kg; half-life [39]: 1 h; Vd [40]: 0.8 L/kg; AUC [26]: 1.7 µM·h; fraction unbound [27]: 0.132; microsomal CLint [41]: 15 µL/min/mg; microsomal CLint [42]: < 10 µL/min/mg; inhibition in vivo at 100 µmol/kg [28]: 42%; inhibition in vivo at 30 µmol/kg [29]: 16%; inhibition in vivo at 140 µmol/kg [31]: 30%; inhibition in vivo at 100 µmol/kg [32]: 65%; inhibition in vivo at 100 µmol/kg [33]: 54%; inhibition in vivo at 30 µmol/kg [35]: 34%
